Measurements reported in US20250368627A1, “PYRAZOLESULFONAMIDES AS ANTITUMOR AGENTS” (Peloton Therapeutics, Inc., a fully owned subsidiary of …, priority 2019, published 2025).

Tests used:
[1] = tested on: HCT116 human colorectal carcinoma cells; test: CellTiter-Glo Luminescent Cell Viability Assay; assay type: cell-based; conditions: HCT-116, 72 h, 3 days
Protocol: HCT116 human colorectal carcinoma cells were used in these experiments. HCT116 cells were obtained from ATCC. CellTiter-Glo® Luminescent Cell Viability Assay Reagent was obtained from Promega.
About 3,000 cells were seeded into 96-well plate with […] of media (DMEM supplemented with 10% FBS, 100 units penicillin, and […] streptomycin per mL) the day before the experiment. For compound treatment, the master plate was prepared as follows: 100× compound stocks were prepared in a 96-well plate by 1 to 3 serial dilutions of 0.5 mM DMSO stocks. Each master plate contained serial dilution of 8 compounds, including the control compound E7820. […] of 100× compound stock was added to each well of the assay plate to give final concentrations of […]. Each concentration was tested in triplicate. After 3 days, cell viability was determined using CellTiter-Glo Luminescent Cell Viability Assay Reagent following the manufacturer's recommended protocol. Briefly, […] of CellTiter-Glo reagent was added to each well of the assay plate and the contents were mixed for 3 minutes at 600 rpm on a shaker (Thermomixer R). The plate was immediately placed in a plate reader (Synergy 2) and the luminescence signal (0.5 second per well integration time) was determined. IC50 values were calculated using Dotmatics software.

[2] = molecular target: T1, DDB1DB/DCAF15 and RBM39 R1R2 complex (Homo sapiens, UniProt Q14498+Q66K64); test: DCAF15 RBM39 Complex Formation Assay (FRET); assay type: binding; conditions: FRET ratio Em 665/Em 615, incubated overnight at 4° C.
T1 construct: Amino acids 150 to 331 of RBM39 were cloned into pGEX4T3; GST (from vector pGEX4T3); TEV cleavage site (N); made in house; host or cells: DDB1DB/His-DCAF15: baculovirus/Sf9 co-expression; RBM39 R1R2: E. coli (pGEX4T3)
T1 sequence (Q66K64 whole entry, the tested form may be a part): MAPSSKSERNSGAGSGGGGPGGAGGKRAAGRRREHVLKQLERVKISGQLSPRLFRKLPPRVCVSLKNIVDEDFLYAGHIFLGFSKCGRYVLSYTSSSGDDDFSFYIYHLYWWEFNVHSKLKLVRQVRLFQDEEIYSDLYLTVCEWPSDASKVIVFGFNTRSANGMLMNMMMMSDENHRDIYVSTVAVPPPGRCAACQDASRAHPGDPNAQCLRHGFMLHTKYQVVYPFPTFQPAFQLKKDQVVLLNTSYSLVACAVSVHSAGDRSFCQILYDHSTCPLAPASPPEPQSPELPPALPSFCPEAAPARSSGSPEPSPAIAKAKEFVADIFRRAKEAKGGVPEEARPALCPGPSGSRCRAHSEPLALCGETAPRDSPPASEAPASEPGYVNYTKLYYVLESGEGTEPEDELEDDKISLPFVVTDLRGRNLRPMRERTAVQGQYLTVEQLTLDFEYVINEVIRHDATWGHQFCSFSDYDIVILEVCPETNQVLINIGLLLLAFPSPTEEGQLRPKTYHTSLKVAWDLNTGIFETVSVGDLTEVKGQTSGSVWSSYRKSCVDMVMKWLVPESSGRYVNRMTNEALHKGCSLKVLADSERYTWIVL
T1 sequence (Q14498 150-331): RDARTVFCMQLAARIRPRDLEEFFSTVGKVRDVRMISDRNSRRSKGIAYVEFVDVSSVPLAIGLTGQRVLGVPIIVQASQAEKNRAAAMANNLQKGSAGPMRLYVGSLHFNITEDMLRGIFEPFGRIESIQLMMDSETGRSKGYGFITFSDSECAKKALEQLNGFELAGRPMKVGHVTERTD
T1 sequence (Q16531 with tags, fused parts or gaps DEL396-708 partner): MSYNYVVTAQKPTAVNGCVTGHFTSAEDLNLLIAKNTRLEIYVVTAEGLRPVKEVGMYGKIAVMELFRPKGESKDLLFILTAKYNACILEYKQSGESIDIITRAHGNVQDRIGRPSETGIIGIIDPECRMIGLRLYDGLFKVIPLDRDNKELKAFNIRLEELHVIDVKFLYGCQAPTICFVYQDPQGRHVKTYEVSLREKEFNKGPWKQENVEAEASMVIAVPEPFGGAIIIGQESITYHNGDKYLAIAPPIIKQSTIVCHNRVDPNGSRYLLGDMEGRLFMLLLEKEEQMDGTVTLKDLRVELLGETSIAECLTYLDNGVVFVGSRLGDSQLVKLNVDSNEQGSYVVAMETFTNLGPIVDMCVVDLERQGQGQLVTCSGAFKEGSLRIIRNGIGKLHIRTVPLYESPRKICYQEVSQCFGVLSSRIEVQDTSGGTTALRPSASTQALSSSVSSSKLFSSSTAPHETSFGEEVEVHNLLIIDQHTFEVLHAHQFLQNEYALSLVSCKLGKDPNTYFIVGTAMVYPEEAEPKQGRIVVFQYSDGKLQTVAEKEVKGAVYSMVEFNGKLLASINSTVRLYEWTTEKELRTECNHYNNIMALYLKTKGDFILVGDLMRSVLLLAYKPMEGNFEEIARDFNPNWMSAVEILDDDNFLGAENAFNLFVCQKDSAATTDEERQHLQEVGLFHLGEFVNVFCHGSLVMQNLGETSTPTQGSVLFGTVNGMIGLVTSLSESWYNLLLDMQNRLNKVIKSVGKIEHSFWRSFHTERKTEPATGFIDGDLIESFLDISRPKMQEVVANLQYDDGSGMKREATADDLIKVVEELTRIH
Excerpt: LANCE Eu-W1024 Anti-6×His and SureLight Allophycocyanin-anti-FLAG antibodies were purchased from Perkin Elmer. Human DDB1DB and His-tagged DCAF15 were co-expressed in baculovirus/sf9 system. While full length DDB1 contains three 7-bladed propellers termed A, B, and C, DDB1DB has only propeller A (amino acids 1 to 395) and C (amino acids 709-1140). The His-tagged DCAF15 contains six histidine residues directly preceding the DCAF15 sequence without any linker. An RBM39 fragment containing RRM1 and RRM2 was expressed in E. coli. Amino acids 150 to 331 of RBM39 were cloned into pGEX4T3 with an N-terminal TEV cleavage site and a C-terminal FLAG tag.
A compound of the present disclosure in DMSO (2 μL) was transferred to a 384-well assay plate. Compound was added in 14 points, 3-fold serial dilution (1 μM to 0.6 pico molar) in DMSO. […] FRET assay buffer (25 mM HEPES, pH 7.5, 100 mM NaCl, […], 0.5 mM TCEP, 0.005% Tween-20, 0.2 nM Eu—W1024 Anti-6×His, 50 nM SureLight Allophycocyanin-anti-FLAG, 20 nM DDB1DB/DCAF15, 50 nM RBM39 R1R2) was added and the resulting solution was incubated overnight at 4° C. The plate was placed in a plate reader (Spark 10) with excitation at 1=340 nm and emissions monitored at 1=665 nm and 1=615 nm, and the FRET ratio (Em 665/Em 615) was determined. Low signal controls containing no compound and high signal controls containing 10 mM indisulam were measured for each plate.
EC50 values were calculated using Dotmatics template equation for 4-parameter fit. Results are expressed as % formation using the following equation: […]

| SMILES | EC50 [1] [nM] | IC50 [2] [nM] |
| --- | --- | --- |
| O=S(=O)(Nc1cccc2c(Cl)c[nH]c12)c1cnn(CCF)c1 [Compound 35, N-(3-chloro-1H-indol-7-yl)-1-(2-fluoroethyl)pyrazole-4-sulfonamide] | 250 to 1000 | < 250 |
| Cc1ccc(NS(=O)(=O)c2cnn(CCF)c2)c2[nH]cc(C#N)c12 [Compound 36, N-(3-cyano-4-methyl-1H-indol-7-yl)-1-(2-fluoroethyl)pyrazole-4-sulfonamide] | < 250 | < 250 |
| O=S(=O)(Nc1cccc2c(Cl)c[nH]c12)c1cnn(-c2ccccc2)c1 [Compound 37, N-(3-chloro-1H-indol-7-yl)-1-phenyl-pyrazole-4-sulfonamide] | > 1000 | < 250 |
| CC(C)n1cc(S(=O)(=O)Nc2cccc3c(Cl)c[nH]c23)cn1 [Compound 39, N-(3-chloro-1H-indol-7-yl)-1-isopropyl-pyrazole-4-sulfonamide] | 250 to 1000 | < 250 |
| O=S(=O)(Nc1cccc2c(Cl)c[nH]c12)c1cnn(C2COC2)c1 [Compound 40, N-(3-chloro-1H-indol-7-yl)-1-(oxetan-3-yl)pyrazole-4-sulfonamide] | 250 to 1000 | < 250 |
| O=S(=O)(Nc1cccc2c(Cl)c[nH]c12)c1cnn(C2CCNCC2)c1 [Compound 41, N-(3-chloro-1H-indol-7-yl)-1-(4-piperidyl)pyrazole-4-sulfonamide] | > 1000 | 250 to 1000 |
| O=S(=O)(Nc1cccc2c(Cl)c[nH]c12)c1cnn(CC2CNC2)c1 [Compound 43, 1-(azetidin-3-ylmethyl)-N-(3-chloro-1H-indol-7-yl)pyrazole-4-sulfonamide] | > 1000 | < 250 |
| CC1(Cn2cc(S(=O)(=O)Nc3cccc4c(Cl)c[nH]c34)cn2)CSC1 [Compound 44, N-(3-chloro-1H-indol-7-yl)-1-[(3-methylthietan-3-yl)methyl]pyrazole-4-sulfonamide] | > 1000 | < 250 |
| CC1(Cn2cc(S(=O)(=O)Nc3cccc4c(Cl)c[nH]c34)cn2)CS(=O)(=O)C1 [Compound 45, N-(3-chloro-1H-indol-7-yl)-1-[(3-methyl-1,1-dioxo-thietan-3-yl)methyl]pyrazole-4-sulfonamide] | 250 to 1000 | < 250 |
| Cn1cc(S(=O)(=O)Nc2cccc3c(C#N)c[nH]c23)cn1 [Compound 46, N-(3-cyano-1H-indol-7-yl)-1-methyl-pyrazole-4-sulfonamide] | 250 to 1000 | < 250 |
| O=S(=O)(Nc1cccc2c(Cl)c[nH]c12)c1cnn(C2CCC2)c1 [Compound 47, N-(3-chloro-1H-indol-7-yl)-1-cyclobutyl-pyrazole-4-sulfonamide] | 250 to 1000 | < 250 |
| COCCn1cc(S(=O)(=O)Nc2cccc3c(Cl)c[nH]c23)cn1 [Compound 49, N-(3-chloro-1H-indol-7-yl)-1-(2-methoxyethyl)pyrazole-4-sulfonamide] | 250 to 1000 | < 250 |
| O=S(=O)(Nc1cccc2c(Cl)c[nH]c12)c1cnn(CC2CC2)c1 [Compound 51, N-(3-chloro-1H-indol-7-yl)-1-(cyclopropylmethyl)pyrazole-4-sulfonamide] | 250 to 1000 | < 250 |
| N#CC1(Cn2cc(S(=O)(=O)Nc3cccc4c(Cl)c[nH]c34)cn2)CC1 [Compound 52, N-(3-chloro-1H-indol-7-yl)-1-[(1-cyanocyclopropyl)methyl]pyrazole-4-sulfonamide] | 250 to 1000 | < 250 |
| O=S(=O)(Nc1cccc2c(Cl)c[nH]c12)c1cnn(CC2CC(F)(F)C2)c1 [Compound 53, N-(3-chloro-1H-indol-7-yl)-1-[(3,3-difluorocyclobutyl)methyl]pyrazole-4-sulfonamide] | > 1000 | < 250 |
| Cn1cc(S(=O)(=O)Nc2ccc(F)c3c(Cl)c[nH]c23)cn1 [Compound 54, N-(3-chloro-4-fluoro-1H-indol-7-yl)-1-methyl-pyrazole-4-sulfonamide] | 250 to 1000 | < 250 |

| SMILES | EC50 [1] [nM] | IC50 [2] [nM] |
| --- | --- | --- |
| O=S(=O)(Nc1cccc2c(Cl)c[nH]c12)c1cnn(CF)c1 [Compound 56, N-(3-chloro-1H-indol-7-yl)-1-(fluoromethyl)pyrazole-4-sulfonamide] | 250 to 1000 | < 250 |
| O=S(=O)(Nc1cccc2c(Cl)c[nH]c12)c1cnn(CCCF)c1 [Compound 57, N-(3-chloro-1H-indol-7-yl)-1-(3-fluoropropyl)pyrazole-4-sulfonamide] | > 1000 | < 250 |
| N#CCCn1cc(S(=O)(=O)Nc2cccc3c(Cl)c[nH]c23)cn1 [Compound 59, N-(3-chloro-1H-indol-7-yl)-1-(2-cyanoethyl)pyrazole-4-sulfonamide] | < 250 | < 250 |
| Cc1ccc(NS(=O)(=O)c2cnn(CC(F)(F)F)c2)c2[nH]cc(C#N)c12 [Compound 60, N-(3-cyano-4-methyl-1H-indol-7-yl)-1-(2,2,2-trifluoroethyl)pyrazole-4-sulfonamide] | < 250 | < 250 |
| Cc1ccc(NS(=O)(=O)c2cnn(C3CCC3)c2)c2[nH]cc(C#N)c12 [Compound 61, N-(3-cyano-4-methyl-1H-indol-7-yl)-1-cyclobutyl-pyrazole-4-sulfonamide] | 250 to 1000 | < 250 |
| Cc1ccc(NS(=O)(=O)c2cn[nH]c2)c2[nH]cc(C#N)c12 [Compound 62, N-(3-cyano-4-methyl-1H-indol-7-yl)-1H-pyrazole-4-sulfonamide] | 250 to 1000 | < 250 |
| Cc1ccc(NS(=O)(=O)c2cnn(C(C)C)c2)c2[nH]cc(C#N)c12 [Compound 63, N-(3-cyano-4-methyl-1H-indol-7-yl)-1-isopropyl-pyrazole-4-sulfonamide] | 250 to 1000 | < 250 |
| Cc1ccc(NS(=O)(=O)c2cnn(C3COC3)c2)c2[nH]cc(C#N)c12 [Compound 64, N-(3-cyano-4-methyl-1H-indol-7-yl)-1-(oxetan-3-yl)pyrazole-4-sulfonamide] | < 250 | < 250 |
| Cn1cc(S(=O)(=O)Nc2ccc(F)c3c(C#N)c[nH]c23)cn1 [Compound 65, N-(3-cyano-4-fluoro-1H-indol-7-yl)-1-methyl-pyrazole-4-sulfonamide] | 250 to 1000 | < 250 |
| Cc1ccc(NS(=O)(=O)c2cnn(CC(F)F)c2)c2[nH]cc(C#N)c12 [Compound 66, N-(3-cyano-4-methyl-1H-indol-7-yl)-1-(2,2-difluoroethyl)pyrazole-4-sulfonamide] | < 250 | < 250 |
| Cc1ccc(NS(=O)(=O)c2cnn(CCS(C)(=O)=O)c2)c2[nH]cc(C#N)c12 [Compound 67, N-(3-cyano-4-methyl-1H-indol-7-yl)-1-(2-methylsulfonylethyl)pyrazole-4-sulfonamide] | 250 to 1000 | < 250 |
| CCn1cc(S(=O)(=O)Nc2ccc(C)c3c(C#N)c[nH]c23)cn1 [Compound 68, N-(3-cyano-4-methyl-1H-indol-7-yl)-1-ethyl-pyrazole-4-sulfonamide] | < 250 | < 250 |
| Cc1ccc(NS(=O)(=O)c2cnn(CC3CC3)c2)c2[nH]cc(C#N)c12 [Compound 69, N-(3-cyano-4-methyl-1H-indol-7-yl)-1-(cyclopropylmethyl)pyrazole-4-sulfonamide] | < 250 | < 250 |
| Cc1ccc(NS(=O)(=O)c2cnn(CF)c2)c2[nH]cc(C#N)c12 [Compound 70, N-(3-cyano-4-methyl-1H-indol-7-yl)-1-(fluoromethyl)pyrazole-4-sulfonamide] | < 250 | < 250 |
| Cc1ccc(NS(=O)(=O)c2cnn(CC3(C)COC3)c2)c2[nH]cc(C#N)c12 [Compound 71, N-(3-cyano-4-methyl-1H-indol-7-yl)-1-[(3-methyloxetan-3-yl)methyl]pyrazole-4-sulfonamide] | 250 to 1000 | < 250 |
